PMC3352596 (Bioorganic & medicinal chemistry letters, 2011)

Columns and labels:
[1] = biological target: T1, adenosine deaminase (Bos taurus, UniProt P56658); assay: evaluation as substrates of adenosine deaminase; type: biochemical
T1 sequence (P56658 1-363): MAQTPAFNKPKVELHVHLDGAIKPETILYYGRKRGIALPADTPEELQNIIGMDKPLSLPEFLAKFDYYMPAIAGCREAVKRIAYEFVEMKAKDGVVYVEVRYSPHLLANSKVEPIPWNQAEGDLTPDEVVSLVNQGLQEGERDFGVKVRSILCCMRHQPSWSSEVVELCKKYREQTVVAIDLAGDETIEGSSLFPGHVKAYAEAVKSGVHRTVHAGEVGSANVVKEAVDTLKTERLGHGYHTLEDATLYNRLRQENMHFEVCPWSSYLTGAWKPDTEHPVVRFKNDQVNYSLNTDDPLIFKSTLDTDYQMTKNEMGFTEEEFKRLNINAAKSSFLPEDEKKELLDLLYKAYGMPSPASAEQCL

[2] = biological target: T1, adenosine deaminase; assay: inhibition of ADA catalyzed conversion of adenosine to inosine; type: biochemical; settings: compounds tested at 10 μM
[3] = test system: Huh7 cells; assay: cytotoxicity in Huh7 cells by amplification of ribosomal RNA; type: cell-based; settings: for inhibition at 10 µM: Homo sapiens, Huh-7, read-out: Anti-HCV activity: % inhib @ 10 μM in Huh7 cells, rRNA; for cytotoxicity / toxicity to cell lines: Huh7, PBM, CEM, Vero cell lines
[4] = test system: HCV RNA replication (subgenomic HCV replicon); assay: inhibition of HCV RNA replication in Huh7 cells, subgenomic HCV replicon system; type: cell-based, Hepatitis C virus; settings: for inhibition at 10 µM: Hepatitis C virus, Huh-7, read-out: Anti-HCV activity: % inhib @ 10 μM in Huh7 cells, HCV, 10 μM, Huh7 cells, HCV RNA; for antiviral activity or cytotoxicity: anti-HCV, anti-HIV and cytotoxicity assays of Table 1
[5] = test system: HCV; settings: non-obligatory chain terminators toward RNA elongation; cited from earlier work
[6] = cited from earlier work
[7] = cytotoxicity in CEM cells; type: cell-based; settings: human, lymphoblastoid CEM cells
[8] = stability in pH 7.4 phosphate buffer; type: physicochemical; settings: 23 °C, 3 days

Compound: CCOP(=O)(OCC)c1nc(N)nc2c1ncn2[C@@H]1O[C@H](CO)[C@@H](O)[C@@]1(C)O [Compound 9]
- substrate of adenosine deaminase (nitrogen to oxygen transformation) [1]: none underwent a nitrogen to oxygen transformation
- ability to inhibit ADA catalyzed conversion of adenosine to inosine [2]: Only compound 21 was found effective
- inhibition at 10 µM [3]: 14.8%
- inhibition at 10 µM [4]: 18.7%

Compound: C[C@@]1(O)[C@H](O)[C@@H](CO)O[C@H]1n1cnc2c(N)ncnc21 [Compound 1, 2′-C-Methyl adenosine]
- in vitro anti-HCV activity [5]: selective in vitro anti-HCV activity
- in vivo bioavailability [6]: poor bioavailability

Compound: C[C@@]1(O)[C@H](O)[C@@H](CO)O[C@H]1n1cnc2c(N)nc(Cl)nc21 [Compound 17]
- antiviral activity or cytotoxicity [4]: no antiviral activity or cytotoxicity

Compound: C[C@@]1(OC(=O)c2ccccc2)[C@H](OC(=O)c2ccccc2)[C@@H](COC(=O)c2ccccc2)O[C@H]1n1cnc2c(N)nc(NO)nc21 [Compound 26]
- CC50 [7]: 27.4 µM
- cytotoxicity / toxicity to cell lines [3]: broad toxicity against most cell lines tested

Compound: C[C@@]1(O)[C@H](O)[C@@H](CO)O[C@H]1n1cnc2c(N)n[nH]c(=O)c21 [Compound 32, 4-amino-1-(2-methyl-β-D-ribofuranosyl)-3H-imidazo[4,5-d] pyriazin-7-(6H)-one]
- substrate of adenosine deaminase (nitrogen to oxygen transformation) [1]: none underwent a nitrogen to oxygen transformation
- ability to inhibit ADA catalyzed conversion of adenosine to inosine [2]: Only compound 21 was found effective
- inhibition at 10 µM [3]: 0%

Compound: C[C@@]1(O)[C@H](O)[C@@H](CO)O[C@H]1n1cnc2c(N)nc(-n3cc([Si](C)(C)C)nn3)nc21 [Compound 22]
- inhibition at 10 µM [3]: 0%
- antiviral activity or cytotoxicity [4]: no antiviral activity or cytotoxicity

Compound: C[C@@]1(OC(=O)c2ccccc2)[C@H](OC(=O)c2ccccc2)[C@@H](COC(=O)c2ccccc2)O[C@H]1n1cnc2c(Cl)nc(NO)nc21 [Compound 27]
- inhibition at 10 µM [3]: 99.9%
- cytotoxicity / toxicity to cell lines [3]: broad toxicity against most cell lines tested

Compound: Cc1nc(N)nc2c1ncn2[C@@H]1O[C@H](CO)[C@@H](O)[C@@]1(C)O [Compound 6]
- inhibition at 10 µM [3]: 0%

Compound: Cc1nc2c3ncn([C@@H]4O[C@H](CO)[C@@H](O)[C@@]4(C)O)c3nc(N)n2n1 [Compound 13a]
- inhibition at 10 µM [3]: 0%

Compound: CCOC(=O)[C@H](C)NP(=O)(OC[C@H]1O[C@@H](n2cnc3c(C)nc(N)nc32)[C@](C)(O)[C@@H]1O)Oc1ccccc1 (stereo partly shown) [Compound 7]
- inhibition at 10 µM [3]: 0%
- anti-HCV activity / inhibition of HCV replicon RNA replication ([4]; up to 10 μM): did not display any inhibition of HCV replicon RNA replication

Compound: C[C@@]1(O)[C@H](O)[C@@H](CO)O[C@H]1n1cnc2c(N)nc(NN)nc21 [Compound 19]
- stability in phosphate buffer [8]: complete conversion of 19 to a complex mixture of products after 3 days
- cytotoxicity / toxicity to cell lines [3]: no observed cytotoxicity

Compound: C[C@@]1(O)[C@H](O)[C@@H](CO)O[C@H]1n1cnc2c(=O)[nH]c(N)nc21 [Compound 2, 2′-C-methyl guanosine]
- in vitro anti-HCV activity [5]: selective in vitro anti-HCV activity
- in vivo bioavailability [6]: poor bioavailability

Compound: COc1nc(Cl)nc2c1ncn2[C@@H]1O[C@H](CO)[C@@H](O)[C@@]1(C)O [Compound 18]
- inhibition at 10 µM [4]: 14.3%
- antiviral activity or cytotoxicity [4]: no antiviral activity or cytotoxicity

Compound: C[C@@]1(O)[C@H](O)[C@@H](CO)O[C@H]1n1cnc2c(=O)[nH]nc(N)c21 [Compound 35, 7-amino-1-(2-methyl-δ -D-ribofuranosyl)-1H-imidazo [4,5-d] pyridazin-4-(5H)-one]
- ability to inhibit ADA catalyzed conversion of adenosine to inosine [2]: Only compound 21 was found effective
- inhibition at 10 µM [3]: 0%

Compound: CCOP(=O)(O)c1nc(N)nc2c1ncn2[C@@H]1O[C@H](CO)[C@@H](O)[C@@]1(C)O [Compound 10]
- substrate of adenosine deaminase (nitrogen to oxygen transformation) [1]: none underwent a nitrogen to oxygen transformation
- ability to inhibit ADA catalyzed conversion of adenosine to inosine [2]: Only compound 21 was found effective
- inhibition at 10 µM [4]: 19.3%

Compound: C[C@@]1(O)[C@H](O)[C@@H](CO)O[C@H]1n1cnc2c(N)nc(N=[N+]=[N-])nc21 [Compound 20]
- inhibition at 10 µM [3]: 0%
- antiviral activity or cytotoxicity [4]: no antiviral activity or cytotoxicity

Compound: C[C@@]1(O)[C@H](O)[C@@H](CO)O[C@H]1n1cnc2c(N)nc(-n3ccnn3)nc21 [Compound 21]
- substrate of adenosine deaminase (nitrogen to oxygen transformation) [1]: none underwent a nitrogen to oxygen transformation
- ability to inhibit ADA catalyzed conversion of adenosine to inosine [2]: effective
- inhibition at 10 µM [3]: 0%
- antiviral activity or cytotoxicity [4]: no antiviral activity or cytotoxicity

Compound: C[C@@]1(O)[C@H](O)[C@@H](CO)O[C@H]1n1cnc2c1nc(N)n1nc(-c3ccco3)nc21 [Compound 13b]
- ability to inhibit ADA catalyzed conversion of adenosine to inosine [2]: Only compound 21 was found effective
- inhibition at 10 µM [3]: 0%

Compound: C[C@@]1(O)[C@H](O)[C@@H](CO)O[C@H]1n1cnc2c(=N)n(N)[nH]c(=O)c21 [Compound 33]
- inhibition at 10 µM [3]: 0%
